The text below walks through data of patent US7888343B2, “Substituted, bicyclic 8-pyrrolidinoxanthines, and methods for their use as inhibitors of dipeptidyl peptidase” (Sanofi-A Ventis Deutschland GmbH, priority 2004, dated 2011).

Structures are written as SMILES. Where a name gives a salt, the structure may show the parent alone.

In the first data set the target is T1, DPP-IV from porcine kidney (Sus scrofa, UniProt P22411).
T1 construct: DPP-IV from porcine kidney (Sigma, Munich); purchased Sigma, Munich; host or cells: porcine kidney (tissue-derived enzyme)
T1 sequence (P22411 whole entry): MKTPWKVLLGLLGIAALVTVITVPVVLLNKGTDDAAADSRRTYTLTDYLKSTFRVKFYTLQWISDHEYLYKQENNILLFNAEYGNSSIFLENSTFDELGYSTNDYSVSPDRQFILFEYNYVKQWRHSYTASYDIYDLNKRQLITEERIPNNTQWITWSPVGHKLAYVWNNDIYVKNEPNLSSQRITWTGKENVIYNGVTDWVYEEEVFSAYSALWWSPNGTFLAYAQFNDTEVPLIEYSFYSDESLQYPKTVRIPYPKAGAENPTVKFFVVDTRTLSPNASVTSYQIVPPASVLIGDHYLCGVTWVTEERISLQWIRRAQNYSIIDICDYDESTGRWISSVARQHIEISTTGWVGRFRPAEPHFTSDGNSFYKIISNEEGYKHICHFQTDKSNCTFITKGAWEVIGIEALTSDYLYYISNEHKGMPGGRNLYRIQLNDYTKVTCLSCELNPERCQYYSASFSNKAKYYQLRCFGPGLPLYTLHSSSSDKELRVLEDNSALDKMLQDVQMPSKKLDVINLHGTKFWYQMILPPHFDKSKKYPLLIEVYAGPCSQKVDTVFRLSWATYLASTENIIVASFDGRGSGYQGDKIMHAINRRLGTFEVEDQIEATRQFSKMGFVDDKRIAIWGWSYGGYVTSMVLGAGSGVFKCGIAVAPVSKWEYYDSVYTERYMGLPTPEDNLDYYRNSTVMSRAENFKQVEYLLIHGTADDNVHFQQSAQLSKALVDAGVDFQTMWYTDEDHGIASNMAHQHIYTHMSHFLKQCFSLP
The data set can be described thus: Measurement of the DPP-IV activity (fluorimetric H-Ala-Pro-AFC conversion). Format: biochemical. Particulars: DPP-IV 1 mU/ml, H-Ala-Pro-AFC 15 μM, Tris/HCl 40 mM pH 7.4, room temperature. As to the method:
The reaction was carried out at room temperature for various times (typically 10 min) and stopped at the end of the reaction by adding 20 μl of ZnCl2(1 M). […] When inhibitors were added, the added buffer volume was adapted so that a total volume of 200 μl was maintained for the assay mixture.
The IC50 is the concentration at which inhibition is half-maximal. The low end stands for greater potency in that assay, the high end for weaker potency in that assay. `Cn1c(=O)n(CC(=O)c2ccccc2)c(=O)c2c1nc(N1CCC3CNCC31)n2Cc1ccccc1` (stereo not shown) [Example 5, 7-Benzyl-8-(hexahydropyrrolo[3,4-b]pyrrol-1-yl)-3-methyl-1-(2-oxo-2-phenylethyl)-3,7-dihydropurine-2,6-dione hydrochloride] yielded a half-inhibitory concentration (IC50) of 7.2 nM.

Molecule `CC(C)=CCn1c(N2CCC3CNCC32)nc2c1c(=O)n(CC(=O)c1ccccc1)c(=O)n2CC(F)(F)F` (stereo not shown) [Example 35, 8-(Hexahydropyrrolo[3,4-b]pyrrol-1-yl)-7-(3-methylbut-2-enyl)-1-(2-oxo-2-phenylethyl)-3-(2,2,2-trifluoroethyl)-3,7-dihydropurine-2,6-dione hydrochloride] gave a half-inhibitory concentration (IC50) of 50 nM. The same measure, in the same setting: next, `CC(C)=CCn1c(N2CCC3CNCC32)nc2c1c(=O)n(CC(=O)c1cccc(Cl)c1)c(=O)n2C` (stereo not shown) [Example 42, 1-[2-(3-Chlorophenyl)-2-oxo-ethyl]-8-(hexahydropyrrolo[3,4-b]pyrrol-1-yl)-3-methyl-7-(3-methylbut-2-enyl)-3,7-dihydropurine-2,6-dione]: 10 nM; `Cn1c(=O)c2c(nc(N3CCC4CNCC43)n2Cc2ccccc2Cl)n(C)c1=O` (stereo not shown) [Example 97, 7-(2-Chlorobenzyl)-8-(hexahydropyrrolo[3,4-b]pyrrol-1-yl)-1,3-dimethyl-3,7-dihydropurine-2,6-dione trifluoroacetate]: 20 nM; `CC(C)=CCn1c(N2CCC3CNCC32)nc2c1c(=O)n(CC(O)c1ccccc1)c(=O)n2C` (stereo not shown) [Example 14, 8-(Hexahydropyrrolo[3,4-b]pyrrol-1-yl)-1-(2-hydroxy-2-phenylethyl)-3-methyl-7-(3-methyl-but-2-enyl)-3,7-dihydropurine-2,6-dione hydrochloride]: 12 nM. Same read-out and setting: next, `CC(C)=CCn1c(N2CCC3CNCC32)nc2c1c(=O)n(CC(=O)c1ccccc1Cl)c(=O)n2C` (stereo not shown) [Example 41, 1-[2-(2-Chlorophenyl)-2-oxo-ethyl]-8-(hexahydropyrrolo[3,4-b]pyrrol-1-yl)-3-methyl-7-(3-methylbut-2-enyl)-3,7-dihydropurine-2,6-dione trifluoroacetate]: 10.5 nM; `CCn1c(=O)n(CC(=O)c2ccccc2)c(=O)c2c1nc(N1CCC3CNCC31)n2CC=C(C)C` (stereo not shown) [Example 15, 3-Ethyl-8-(hexahydropyrrolo[3,4-b]pyrrol-1-yl)-7-(3-methylbut-2-enyl)-1-(2-oxo-2-phenyl-ethyl)-3,7-dihydropurine-2,6-dione hydrochloride]: 5 nM; `CC(C)=CCn1c(N2CCC3CNCC32)nc2c1c(=O)n(CCc1ccccc1)c(=O)n2C1CC1` (stereo not shown) [Example 21, 3-Cyclopropyl-8-(hexahydropyrrolo[3,4-b]pyrrol-1-yl)-7-(3-methylbut-2-enyl)-1-phenethyl-3,7-dihydropurine-2,6-dione hydrochloride]: 71 nM. Molecule `CC(C)=CCn1c(N2CCC3CNCC32)nc2c1c(=O)n(Cc1nc3cc(F)ccc3s1)c(=O)n2C` (stereo not shown) [Example 16, 1-(5-Fluorobenzothiazol-2-ylmethyl)-8-(hexahydropyrrolo[3,4-b]pyrrol 1-yl)-3-methyl-7-(3-methylbut-2-enyl)-3,7-dihydropurine-2,6-dione hydrochloride] displayed an IC50 of 19 nM.

Tested on in a further data set: not given
Assay: not given
Details: not given
One may read the melting point as the temperature of the solid-liquid transition. Take `CC(C)=CCn1c(N2CC[C@@H]3CN(C)C[C@@H]32)nc2c1c(=O)n(CC(=O)c1ccccc1)c(=O)n2C` (relative stereo) [Example 2, 3-Methyl-7-(3-methylbut-2-enyl)-8-(cis-5-methylhexahydropyrrolo[3,4-b]pyrrole-1-yl)-1-(2-oxo-2-phenylethyl)-3,7-dihydropurine-2,6-dione]: the melting point amounted to 73.5 °C.
